Assay results from the NIST ThermoML archive (doi:10.1021/je600567z).

Assay: activity coefficient (dimensionless); of the first substance listed, at infinite dilution; xn = mol fraction of the nth substance listed
Settings: Liquid, x1 = 0

CC(C)CO [2-methyl-1-propanol] + O
Settings	activity coefficient
273.35 K, Relative Headspace Analysis	31.6
283.15 K, Relative Headspace Analysis	36.8
293.15 K, headspace analysis	44.3
298.15 K, Relative Headspace Analysis	47.4
303.15 K, headspace analysis	50.3
313.15 K, headspace analysis	54.1
323.15 K, headspace analysis	57.6
333.15 K, headspace analysis	58.3
363.15 K, circulation equilibrium still	54.3
371.15 K, circulation equilibrium still	52.2

CC(C)(C)O [2-methylpropan-2-ol] + O
Settings	activity coefficient
299.15 K, headspace analysis	13.1
303.15 K, headspace analysis	14.4
313.15 K, headspace analysis	16.9
323.15 K, Rayleigh distallation	19.9
333.15 K, Rayleigh distallation	21.8
343.15 K, Rayleigh distallation	23.5
353.15 K, circulation equilibrium still	25.4
363.15 K, circulation equilibrium still	26.3
371.15 K, circulation equilibrium still	27.4

CCC(C)O (configuration not stated) [butan-2-ol] + O
Settings	activity coefficient
273.35 K, Relative Headspace Analysis	13.7
283.15 K, Relative Headspace Analysis	17.9
293.15 K, Relative Headspace Analysis	22.6
293.15 K, headspace analysis	22.5
303.15 K, headspace analysis	26.8
303.15 K, inert gas stripping	26.8
313.15 K, headspace analysis	31.3
313.15 K, inert gas stripping	30.8
323.15 K, headspace analysis	33.8
323.15 K, inert gas stripping	34.4
333.15 K, headspace analysis	36.9
333.15 K, inert gas stripping	35.7
343.15 K, Rayleigh distallation	38
353.15 K, Rayleigh distallation	38.4
363.15 K, circulation equilibrium still	40.4
371.15 K, circulation equilibrium still	37.8

CC(C)O [propan-2-ol] + O
Settings	activity coefficient
283.15 K, Relative Headspace Analysis	5.37
293.15 K, Relative Headspace Analysis	6.89
308.15 K, Relative Headspace Analysis	8.84
333.15 K, Rayleigh distallation	11.8
353.15 K, circulation equilibrium still	12.5
363.15 K, circulation equilibrium still	12.9
371.15 K, circulation equilibrium still	13.1
